What all share (assay type): cell-based
The target in assay [1] is T1, GHRHR E122A (Homo sapiens, UniProt Q02643, E122A).
T1 construct: GHRHR(23-423)-; HA signal peptide (replaces native signal M1-G22) (N); expressed in transfected cells; host or cells: HEK 293T, pcDNA3.1, transient
In words: cAMP accumulation, E122A. The following applies: mean ± SEM, n ≥ 3. An excerpt:
(§1) Fig. 2 Molecular recognition of GHRH by GHRHR and comparison of that with LA-PTH–PTH1R and GLP-1–GLP-1R. a Detailed interaction between GHRH and the TMD pocket of GHRHR with hydrogen bonds shown as dotted lines. b, c Pairwise comparison of GHRH bound to GHRHR with GLP-1 and LA-PTH in complex with their corresponding receptors, showing the relative positions of peptide ligands. Lime green, GHRHR; blue, GHRH; red, PTH1R and LA-PTH; purple, GLP-1R and GLP-1. d–f The effects of mutation in the ligand-binding pocket on cAMP accumulation. cAMP levels were measured in wild-type (WT) receptor and alanine mutants in ECL1, 2, and 3 (d), TM1, 2, and 3 (e), and TM5, 6, and 7 (f). cAMP signals were normalized to the maximum response of WT and concentration–response curves were analyzed using a three-parameter logistic equation. Data shown are means ± S.E.M. of at least three independent experiments (n = 3–5), conducted in triplicate. Source data are provided as a Source data file.
(§2) GHRH-stimulated cAMP accumulation was measured by a LANCE Ultra cAMP kit (PerkinElmer). […] After 1 h RT incubation, TR-FRET signals (excitation: 320 nm, emission: 615 and 665 nm) were measured by an EnVision (PerkinElmer).

Assay [2] concerns the target T2, GHRHR E123A (Homo sapiens, UniProt Q02643, E123A).
T2 construct: GHRHR(23-423)-; HA signal peptide (replaces native signal M1-G22) (N); expressed in transfected cells; host or cells: HEK 293T, pcDNA3.1, transient
In words: cAMP accumulation, E123A. The conditions noted are these: mean ± SEM, n ≥ 3.
From the text: as §1, §2
In general terms: Changes in cAMP serve as a functional read-out for many G protein-coupled receptors.

In assay [3] the target is T3, GHRHR V179A (Homo sapiens, UniProt Q02643, V179A).
T3 construct: GHRHR(23-423)-; HA signal peptide (replaces native signal M1-G22) (N); expressed in transfected cells; host or cells: HEK 293T, pcDNA3.1, transient
T3 sequence (Q02643 23-423 V179A): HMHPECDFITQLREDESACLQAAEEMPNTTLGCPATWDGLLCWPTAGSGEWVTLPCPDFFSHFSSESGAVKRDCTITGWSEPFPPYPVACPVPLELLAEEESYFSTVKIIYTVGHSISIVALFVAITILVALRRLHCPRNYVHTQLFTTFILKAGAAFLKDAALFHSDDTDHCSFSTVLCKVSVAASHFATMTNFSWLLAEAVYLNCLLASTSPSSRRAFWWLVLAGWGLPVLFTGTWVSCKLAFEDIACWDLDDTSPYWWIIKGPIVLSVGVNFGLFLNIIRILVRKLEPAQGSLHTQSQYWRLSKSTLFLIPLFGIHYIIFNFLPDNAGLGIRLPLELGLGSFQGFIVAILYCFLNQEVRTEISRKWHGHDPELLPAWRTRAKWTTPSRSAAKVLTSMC
Put plainly: cAMP accumulation, V179A. The conditions noted are these: mean ± SEM, n ≥ 3.
From the text: as §1, §2

The target of assay [4] is T4, GHRHR D193A (Homo sapiens, UniProt Q02643, D193A).
T4 construct: GHRHR(23-423)-; HA signal peptide (replaces native signal M1-G22) (N); expressed in transfected cells; host or cells: HEK 293T, pcDNA3.1, transient
T4 sequence (Q02643 23-423 D193A): as the sequence (Q02643 23-423 V179A) above, with A157V, D171A counted along it
Put plainly: cAMP accumulation, D193A. The following applies: mean ± SEM, n ≥ 3.
From the text: as §1, §2

Assay [5] addresses T5, GHRHR C195A (Homo sapiens, UniProt Q02643, C195A).
T5 construct: GHRHR(23-423)-; HA signal peptide (replaces native signal M1-G22) (N); expressed in transfected cells; host or cells: HEK 293T, pcDNA3.1, transient
Put plainly: cAMP accumulation, C195A. The following applies: mean ± SEM, n ≥ 3.
From the text: as §1, §2

In assay [6] the target is T6, GHRHR T213A (Homo sapiens, UniProt Q02643, T213A).
T6 construct: GHRHR(23-423)-; HA signal peptide (replaces native signal M1-G22) (N); expressed in transfected cells; host or cells: HEK 293T, pcDNA3.1, transient
T6 sequence (Q02643 23-423 T213A): as the sequence (Q02643 23-423 V179A) above, with A157V, T191A counted along it
Put plainly: cAMP accumulation, T213A. The following applies: mean ± SEM, n ≥ 3.
From the text: as §1, §2

Assay [7] deals with T7, GHRHR D276A (Homo sapiens, UniProt Q02643, D276A).
T7 construct: GHRHR(23-423)-; HA signal peptide (replaces native signal M1-G22) (N); expressed in transfected cells; host or cells: HEK 293T, pcDNA3.1, transient
T7 sequence (Q02643 23-423 D276A): as the sequence (Q02643 23-423 V179A) above, with A157V, D254A counted along it
In words: cAMP accumulation, D276A. The following applies: mean ± SEM, n ≥ 3.
From the text: as §1, §2

Assay [8] concerns the target T8, GHRHR L354A (Homo sapiens, UniProt Q02643, L354A).
T8 construct: GHRHR(23-423)-; HA signal peptide (replaces native signal M1-G22) (N); expressed in transfected cells; host or cells: HEK 293 T
In words: cAMP accumulation, L354A. The following applies: mean ± SEM, n ≥ 3.
From the text: as §1, §2

The target of assay [9] is T9, GHRHR(23-405)-15AA-LgBiT-2MBP (Homo sapiens, UniProt Q02643).
T9 construct: 24 h after transfection with GHRHR(23-423), GHRHR(23-405), GHRHR(23-405)-LgBiT-2MBP, or HA-Flag-GHRHR (WT and mutants); HA signal peptide (replaces native signal M1-G22) (N); expressed in transfected cells; host or cells: HEK 293 T
T9 sequence (Q02643 23-405): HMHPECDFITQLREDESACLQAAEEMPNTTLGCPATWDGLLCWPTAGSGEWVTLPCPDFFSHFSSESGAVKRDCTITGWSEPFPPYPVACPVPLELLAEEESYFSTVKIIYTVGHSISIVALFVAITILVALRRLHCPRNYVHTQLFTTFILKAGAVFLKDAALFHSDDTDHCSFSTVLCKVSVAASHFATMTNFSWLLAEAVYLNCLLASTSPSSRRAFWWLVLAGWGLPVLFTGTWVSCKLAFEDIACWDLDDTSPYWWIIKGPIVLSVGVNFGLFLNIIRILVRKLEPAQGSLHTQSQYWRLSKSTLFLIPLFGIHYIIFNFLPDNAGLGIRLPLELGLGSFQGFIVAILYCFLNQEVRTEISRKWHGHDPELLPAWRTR
In words: cAMP accumulation, construct GHRHR(23-405)-15AA-LgBiT-2MBP (Supplementary Fig. 2b). The conditions noted are these: HEK 293T; mean ± SEM, n = 8-10. The protocol: GHRH-stimulated cAMP accumulation was measured by a LANCE Ultra cAMP kit (PerkinElmer). Briefly, 24 h after transfection with GHRHR(23-423), GHRHR(23-405), GHRHR(23-405)-LgBiT-2MBP, or HA-Flag-GHRHR (WT and mutants), HEK 293 T cells (3000/well in 384-well white plates, PerkinElmer) were digested by 0.2% (w/v) EDTA and 5 μL stimulation buffer (HBSS supplemented with 5 mM HEPES, 0.5 mM IBMX, and 0.1% (w/v) BSA, pH 7.4). Different concentrations (5 μL) of GHRH were then added and the stimulation lasted for 30 min at RT. The reaction was stopped by adding 5 μL Eu-cAMP tracer and 5 μL ULight-anti-cAMP. After 1 h RT incubation, TR-FRET signals (excitation: 320 nm, emission: 615 and 665 nm) were measured by an EnVision (PerkinElmer).
223 Supplementary Ta b l e 1. Effects of GHRH-mediated cAMP accumulation.
Receptor cAMP Cell surface expression Binding
pEC50 Emax (% WT) (% WT) pIC50 […]
225 to determine pEC50 and Emax values. pEC50 is the negative logarithm of the molar
226 concentration of agonist that induced half the maximal response. Cell surface […]
228 Flag antibody (Sigma-Aldrich, 1:300); Donkey anti-Mouse Alexa Fluor 488-
229 conjugated secondary antibody, (ThermoFisher Scientific, 1:1000)] on the […]
231 Binding data were analyzed using a three-parameter logistic equation to […]
234 determine statistical difference. *P<0.01; ND, not determined.

These results are taken from PMC7567103 (Nature Communications, 2020).

For orientation: EC50 means the midpoint of the concentration-response curve. Low readings indicate higher potency in that assay, high ones lower potency in that assay.

T2 sequence (Q02643 23-423 E123A): as the sequence (Q02643 23-423 V179A) above, with E101A, A157V counted along it
T1 sequence (Q02643 23-423 E122A): as the sequence (Q02643 23-423 V179A) above, with E100A, A157V counted along it
T5 sequence (Q02643 23-423 C195A): as the sequence (Q02643 23-423 V179A) above, with A157V, C173A counted along it
T8 sequence (Q02643 23-423 L354A): as the sequence (Q02643 23-423 V179A) above, with A157V, L332A counted along it

As for `CC[C@H](C)[C@H](NC(=O)[C@H](C)NC(=O)[C@H](CC(=O)O)NC(=O)[C@H](C)NC(=O)[C@@H](N)Cc1ccc(O)cc1)C(=O)N[C@@H](Cc1ccccc1)C(=O)N[C@H](C(=O)N[C@@H](CC(N)=O)C(=O)N[C@@H](CO)C(=O)N[C@@H](Cc1ccc(O)cc1)C(=O)N[C@@H](CCCNC(=N)N)C(=O)N[C@@H](CCCCN)C(=O)N[C@H](C(=O)N[C@@H](CC(C)C)C(=O)NCC(=O)N[C@@H](CCC(N)=O)C(=O)N[C@@H](CC(C)C)C(=O)N[C@@H](CO)C(=O)N[C@@H](C)C(=O)N[C@@H](CCCNC(=N)N)C(=O)N[C@@H](CCCCN)C(=O)N[C@@H](CC(C)C)C(=O)N[C@@H](CC(C)C)C(=O)N[C@@H](CCC(N)=O)C(=O)N[C@@H](CC(=O)O)C(=O)N[C@H](C(=O)N[C@@H](CCSC)C(=O)N[C@@H](CO)C(=O)N[C@@H](CCCNC(=N)N)C(=O)N[C@@H](CCC(N)=O)C(=O)N[C@@H](CCC(N)=O)C(=O)NCC(=O)N[C@@H](CCC(=O)O)C(=O)N[C@@H](CO)C(=O)N[C@@H](CC(N)=O)C(=O)N[C@@H](CCC(N)=O)C(=O)N[C@@H](CCC(=O)O)C(=O)N[C@@H](CCCNC(=N)N)C(=O)NCC(=O)N[C@@H](C)C(=O)N[C@@H](CCCNC(=N)N)C(=O)N[C@@H](C)C(=O)N[C@@H](CCCNC(=N)N)C(=O)N[C@@H](CC(C)C)C(N)=O)[C@@H](C)CC)C(C)C)[C@@H](C)O` [GHRH, Growth hormone-releasing hormone], the half-maximal effective concentration (EC50) in assay [1] was 0.11 nM; in [2], 0.0724 nM; in assay [3], 0.288 nM; in [4] it was 0.115 nM; in [5] it was 21.4 nM; in assay [6], 0.447 nM. Moreover, the EC50 in [7] was 0.331 nM; in assay [8] it was 0.182 nM; in [9] it was 2.88 nM. The Emax is recorded as 98.38±3.26 % WT in assay [1]; 100.33±1.34 % WT in assay [2]; 101.24±3.06 % WT in assay [3]; 101.42±1.02 % WT in assay [4]; 95.22±1.05 % WT in [5]; 91.48±4.55 % WT in assay [6]. Further, the Emax in assay [7] was 102.04±0.51 % WT; in [8], 98.79±1.84 % WT; in assay [9], 78.82±10.52 % WT.
